# Source: patent US20230312564A1, “AROMATIC RING-LACTAM COMPOUND, PREPARATION METHOD THEREFOR AND USE THEREOF” (SHANGHAI RINGENE BIOPHARMA CO., LTD., priority 2020, published 2023)
# Where two headings read alike, the source gives them in different places.
# Tests used:
# ERK1/2 kinase = target: T1, ERK1/2 kinase; assay: ERK1/2 kinase (Carna) inhibitory activity, Caliper mobility shift; assay type: biochemical; details: for IC50: read-out: ERK½ IC50
# T1 construct: fused on or other part: Carna's ERK products carry a GST tag by vendor knowledge
# Procedure: (1) Preparation of 1×Kinase buffer; (2) preparation of compound concentration gradient: the initial test concentration of the tested compound was 10 μM, which was 3-fold diluted to 10 concentrations, and a duplicate test was conducted, and then the tested compound was diluted in a 96 well plate to a 100-fold final concentration of 10 different concentrations of solution. […] Log (inhibitor) vs. response—Variable slope of the analysis software GraphPad Prism 5 was used to fit the dose-effect curve to obtain the IC50 value of each compound on the enzyme activity.
# 2. […] (A<10 nM, 10 nM≤B<200 nM, C≥200 nM)
# Colo-205 cells = assay: Colo-205 tumor cell proliferation, CCK-8, 72 hours; assay type: cell-based; details: for IC50: 72 hours, CCK-8, read-out: Colo-205 IC50; for cell proliferation inhibitory activity (in words): Colo-205
# Procedure: 1. Test method: Colo-205 cells (ATCC) in logarithmic growth phase were inoculated into a 96-well culture plate at an appropriate density with 90 μL per well. After overnight culture, different concentrations of the compound were added and acted for 72 hours, and a solvent control group (negative control) was set. After the compound was acted on cells for 72 hours, the effect of the compound on cell proliferation was detected by the cell counting kit CCK-8 (Dojindo), and 10 μL of CCK-8 reagent was added to each well. After the plate was placed in a 37° C. incubator for 2 to 4 hours, a full-wavelength microplate reader SpectraMax 190 was adopted for obtaining the readings with a measured wavelength of 450 nm. […] The IC50 value was obtained by four-parameter regression with the software attached to the microplate reader.
# [1] = In-vivo pharmacokinetic parameters in mice; parameters: species or system Balb-c mice; details: for F: PO 5 mg/kg vs IV 1 mg/kg; for AUC(0-inf) / AUC(0-t) / MRT inf / clearance / half-life / Vd / Cmax / Tmax: male, Balb-c, mouse, plasma; for Vd: read-out: Vss
# Procedure: Six male SPF grade SD rats or Balb-c mice (Shanghai Sipple-Bikai Laboratory Animal) were divided into two groups, and the tested compounds were prepared into appropriate solutions or suspensions; one group was administered intravenously (with a dose of 1 mg/kg), and the other group was administered orally (with a dose of 5 mg/kg). Blood samples were collected by jugular vein puncture, and each sample was collected with a volume of about 0.2 mL/time point, and heparin sodium was used for anticoagulation. The time points of blood collection were listed below: 5, 15 and 30 min […], 1, 2, 4, 6, 8 and 24 h after administration; the collected blood samples were placed on ice and centrifuged to separate plasma (centrifugation conditions: 8,000 rpm, 6 min, 2 to 8° C.), and the collected plasma was stored at −80° C. before analysis. Plasma samples were analyzed by LC-MS/MS.
# The pharmacokinetic parameters such as AUC0-t, AUC0-∞, MRT0-∞, Cmax, Tmax, T1/2 and Vd of the tested compounds and their mean values and standard deviations were calculated by the pharmacokinetic calculation software WinNonlin5.2 non-compartmental model according to the plasma concentration data. In addition, the bioavailability (F) was calculated by the following formula.
# For samples with concentrations below the lower limit of quantitation, while pharmacokinetic parameter calculations were performed, samples sampled before Cmax was reached should be calculated as a zero value and samples sampled after Cmax was reached should be calculated as below limit of quantitation (BLQ).
# [2] = Homo sapiens, COLO 205, numeric values
# [3] = Homo sapiens, COLO 205, class symbols
molecule,measurement,setting,value
Cc1cccc([C@@H](CO)NC(=O)[C@@H](C)N2Cc3ccc(-c4ccnc(NC(C)C)n4)c(F)c3C2=O)c1 [Embodiment 29],IC50,ERK1/2 kinase; numeric values,3.6 nM
same,IC50,Colo-205 cells; class symbols,100 to 1000 nM
"Cn1nccc1Nc1nccc(-c2ccn([C@H](CO)c3ccc(Cl)c(F)c3)c(=O)c2)n1 [GDC0994, reference compound]",IC50,ERK1/2 kinase; class symbols,< 10 nM
same,IC50,Colo-205 cells; [2],165 nM
C[C@H](C(=O)N[C@H](CO)c1cccc(Cl)c1)N1Cc2ccc(-c3nc(NC4CCC(F)(F)CC4)ncc3F)c(F)c2C1=O [Embodiment 38],IC50,ERK1/2 kinase; class symbols,< 10 nM
same,IC50,Colo-205 cells; [3],100 to 1000 nM
Cc1cccc([C@@H](CN)NC(=O)[C@@H](C)N2Cc3ccc(-c4nc(NC5CCOCC5)ncc4F)c(F)c3C2=O)c1 [Embodiment 36],enzyme inhibitory activity (in words),ERK1/2 kinase,extremely strong enzyme inhibitory activity
same,IC50,ERK1/2 kinase; numeric values,< 1 nM
same,cell proliferation inhibitory activity (in words),Colo-205 cells,strong cell proliferation inhibitory activity
same,IC50,Colo-205 cells; [3],< 100 nM
Cc1cccc([C@@H](CO)NC(=O)[C@@H](C)N2Cc3ccc(-c4nc(NC5CCOCC5)ncc4F)nc3C2=O)c1 [Embodiment 28],IC50,ERK1/2 kinase; numeric values,3.7 nM
same,IC50,Colo-205 cells; class symbols,100 to 1000 nM
C[C@H](C(=O)N[C@H](CO)c1cccc(Cl)c1)N1Cc2ccc(-c3nc(NC4CC[C@H](O)[C@@H](F)C4)ncc3F)c(F)c2C1=O (some centres unmarked) [Embodiment 50],IC50,ERK1/2 kinase; class symbols,< 10 nM
same,IC50,Colo-205 cells; [3],< 100 nM
Cc1cccc([C@@H](CO)NC(=O)[C@@H](C)N2Cc3ccc(-c4nc(Nc5ccnn5C)ncc4Cl)nc3C2=O)c1 [Embodiment 9],IC50,ERK1/2 kinase; class symbols,< 10 nM
same,IC50,Colo-205 cells; [3],100 to 1000 nM
"Cc1cccc([C@@H](CO)NC(=O)[C@@H](C)N2Cc3ccc(-c4nc(Nc5ccnn5C)ncc4Cl)c(F)c3C2=O)c1 [Embodiment 32, (R)-2-(6-(5-Chloro-2-((1-methyl-1H-pyrazol-5-yl)amino)pyrimidin-4-yl)-7-fluoro-1-oxoisoindolin-2-yl)-N—((S)-2-hydroxy-1-(m-tolyl)ethyl)propanamide]",F,[1],26%
same,AUC(0-inf),"[1]; IV, 1 mg/kg",0.272 µM·h
same,AUC(0-t),"[1]; IV, 1 mg/kg",0.268 µM·h
same,MRT inf,"[1]; IV, 1 mg/kg",24 min
same,clearance,"[1]; IV, 1 mg/kg",110 mL/min/kg
same,half-life,"[1]; IV, 1 mg/kg",60 min
same,Vd,"[1]; IV, 1 mg/kg",2.7 L/kg
same,AUC(0-inf),"[1]; PO, 5 mg/kg",0.347 µM·h
same,AUC(0-t),"[1]; PO, 5 mg/kg",0.338 µM·h
same,Cmax,"[1]; PO, 5 mg/kg",357 nM
same,Tmax,"[1]; PO, 5 mg/kg",30 min
same,half-life,"[1]; PO, 5 mg/kg",90 min
Cc1cccc([C@@H](CO)NC(=O)[C@@H](C)N2Cc3ccc(-c4nc(NC5CC(F)(F)C5)ncc4Cl)nc3C2=O)c1 [Embodiment 10],IC50,ERK1/2 kinase; numeric values,13 nM
same,IC50,Colo-205 cells; [3],100 to 1000 nM
Cc1cccc([C@@H](CO)NC(=O)[C@@H](C)N2Cc3ccc(-c4nc(Nc5ccc(F)c(N6CCOCC6)c5)ncc4Cl)nc3C2=O)c1 [Embodiment 12],IC50,ERK1/2 kinase; numeric values,12 nM
same,IC50,Colo-205 cells; [3],100 to 1000 nM
C[C@H](C(=O)N[C@H](CO)c1ccc(F)c(Cl)c1)N1Cc2ccc(-c3nc(NC4CCOCC4)ncc3Cl)nc2C1=O [Embodiment 19],IC50,ERK1/2 kinase; numeric values,4.8 nM
same,IC50,Colo-205 cells; [2],202 nM
Cc1cccc([C@@H](CO)NC(=O)[C@@H](C)N2Cc3ccc(-c4nc(N[C@H]5CCOC5)ncc4Cl)nc3C2=O)c1 [Embodiment 11],IC50,ERK1/2 kinase; numeric values,8.3 nM
same,IC50,Colo-205 cells; [3],100 to 1000 nM
Cc1cccc([C@@H](CO)NC(=O)[C@@H](C)N2Cc3ccc(-c4nc(Nc5ccnn5C)ncc4Cl)c(F)c3C2=O)c1 [Embodiment 32],IC50,ERK1/2 kinase; numeric values,1.4 nM
same,IC50,Colo-205 cells; numeric values,98.6 nM
Cc1cccc([C@@H](CO)NC(=O)[C@@H](C)N2Cc3ccc(-c4cc(NC5CCOCC5)ncn4)c(F)c3C2=O)c1 [Embodiment 6],IC50,ERK1/2 kinase; class symbols,< 10 nM
same,IC50,Colo-205 cells; [3],< 100 nM
"Cn1nccc1Nc1nccc(-c2cc3c(s2)C(C)(C)N(CCN2CCOCC2)C3=O)n1 [LY3214996, reference compound]",IC50,ERK1/2 kinase; class symbols,< 10 nM
same,IC50,Colo-205 cells; [2],316 nM
"Cc1cccc([C@@H](CO)NC(=O)[C@@H](C)N2Cc3ccc(-c4nc(NC5CCOCC5)ncc4Cl)c(F)c3C2=O)c1 [Embodiment 25, (R)-2-(6-(5-Chloro-2-((tetrahydro-2H-pyran-4-yl)amino)pyrimidin-4-yl)-7-fluoro-1-oxoisoindolin-2-yl)-N—((S)-2-hydroxy-1-(m-tolyl)ethyl)propanamide]",F,[1],43%
same,AUC(0-inf),"[1]; IV, 1 mg/kg",0.368 µM·h
same,AUC(0-t),"[1]; IV, 1 mg/kg",0.364 µM·h
same,MRT inf,"[1]; IV, 1 mg/kg",18 min
same,clearance,"[1]; IV, 1 mg/kg",80 mL/min/kg
same,half-life,"[1]; IV, 1 mg/kg",42 min
same,Vd,"[1]; IV, 1 mg/kg",1.6 L/kg
same,AUC(0-inf),"[1]; PO, 5 mg/kg",0.796 µM·h
same,AUC(0-t),"[1]; PO, 5 mg/kg",0.776 µM·h
same,Cmax,"[1]; PO, 5 mg/kg",955 nM
same,Tmax,"[1]; PO, 5 mg/kg",18 min
same,half-life,"[1]; PO, 5 mg/kg",102 min
Cc1cccc([C@@H](CO)NC(=O)[C@@H](C)N2Cc3ccc(-c4cc(NC5CCOCC5)ncc4Cl)nc3C2=O)c1 [Embodiment 13],IC50,ERK1/2 kinase; class symbols,10 to 200 nM
same,IC50,Colo-205 cells; [3],100 to 1000 nM
Cc1cccc([C@@H](CO)NC(=O)[C@@H](C)N2Cc3ccc(-c4ccnc(Nc5ccnn5C)n4)c(F)c3C2=O)c1 [Embodiment 27],IC50,ERK1/2 kinase; numeric values,1.3 nM
same,IC50,Colo-205 cells; class symbols,< 100 nM
Cc1cccc([C@@H](CO)NC(=O)[C@@H](C)N2Cc3ccc(-c4cc(Nc5ccnn5C)ncc4F)nc3C2=O)c1 [Embodiment 15],IC50,ERK1/2 kinase; class symbols,10 to 200 nM
same,IC50,Colo-205 cells; [3],100 to 1000 nM
Cc1cccc([C@@H](CO)NC(=O)[C@@H](C)N2Cc3ccc(-c4ccnc(Nc5ccnn5C)n4)nc3C2=O)c1 [Embodiment 16],IC50,ERK1/2 kinase; class symbols,< 10 nM
same,IC50,Colo-205 cells; [3],< 100 nM
Cc1cc([C@@H](CO)NC(=O)[C@@H](C)N2Cc3ccc(-c4nc(NC5CCOCC5)ncc4F)c(F)c3C2=O)ccn1 [Embodiment 41],IC50,ERK1/2 kinase; numeric values,< 1 nM
same,IC50,Colo-205 cells; [3],< 100 nM
Cc1cccc([C@@H](CO)NC(=O)[C@@H](C)N2Cc3ccc(-c4cc(NC5CCOCC5)ncn4)nc3C2=O)c1 [Embodiment 7],IC50,ERK1/2 kinase; class symbols,10 to 200 nM
same,IC50,Colo-205 cells; [3],100 to 1000 nM
COc1cc(F)cc([C@@H](CO)NC(=O)[C@@H](C)N2Cc3ccc(-c4nc(Nc5ccnn5C)ncc4F)c(F)c3C2=O)c1 [Embodiment 45],enzyme inhibitory activity (in words),ERK1/2 kinase,extremely strong enzyme inhibitory activity
same,IC50,ERK1/2 kinase; numeric values,< 1 nM
same,cell proliferation inhibitory activity (in words),Colo-205 cells,strong cell proliferation inhibitory activity
same,IC50,Colo-205 cells; [3],< 100 nM
"C[C@H](C(=O)N[C@H](CO)c1cccc(Cl)c1)N1Cc2ccc(-c3nc(NC4CCOCC4)ncc3Cl)c(F)c2C1=O [Embodiment 34, (R)-2-(6-(5-Chloro-2-((tetrahydro-2H-pyran-4-yl)amino)pyrimidin-4-yl)-7-fluoro-1-oxoisoindolin-2-yl)-N—((S)-1-(3-chlorophenyl)-2-hydroxyethyl)propanamide]",F,[1],19%
same,AUC(0-inf),"[1]; IV, 1 mg/kg",0.83 µM·h
same,AUC(0-t),"[1]; IV, 1 mg/kg",0.825 µM·h
same,MRT inf,"[1]; IV, 1 mg/kg",18 min
same,clearance,"[1]; IV, 1 mg/kg",34 mL/min/kg
same,half-life,"[1]; IV, 1 mg/kg",48 min
same,Vd,"[1]; IV, 1 mg/kg",0.7 L/kg
same,AUC(0-inf),"[1]; PO, 5 mg/kg",0.806 µM·h
same,AUC(0-t),"[1]; PO, 5 mg/kg",0.797 µM·h
same,Cmax,"[1]; PO, 5 mg/kg",791 nM
same,Tmax,"[1]; PO, 5 mg/kg",18 min
same,half-life,"[1]; PO, 5 mg/kg",90 min
"COc1cc(F)cc([C@@H](CO)NC(=O)[C@@H](C)N2Cc3ccc(-c4nc(NC5CCOCC5)ncc4Cl)c(F)c3C2=O)c1 [Embodiment 33, (R)-2-(6-(5-Chloro-2-((tetrahydro-2H-pyran-4-yl)amino)pyrimidin-4-yl)-7-fluoro-1-oxoisoindolin-2-yl)-N—((S)-1-(3-fluoro-5-methoxyphenyl)-2-hydroxyethyl)propanamide]",F,[1],25%
same,AUC(0-inf),"[1]; IV, 1 mg/kg",0.276 µM·h
same,AUC(0-t),"[1]; IV, 1 mg/kg",0.274 µM·h
same,MRT inf,"[1]; IV, 1 mg/kg",12 min
same,clearance,"[1]; IV, 1 mg/kg",102 mL/min/kg
same,half-life,"[1]; IV, 1 mg/kg",24 min
same,Vd,"[1]; IV, 1 mg/kg",1.3 L/kg
same,AUC(0-inf),"[1]; PO, 5 mg/kg",0.338 µM·h
same,AUC(0-t),"[1]; PO, 5 mg/kg",0.322 µM·h
same,Cmax,"[1]; PO, 5 mg/kg",441 nM
same,Tmax,"[1]; PO, 5 mg/kg",18 min
same,half-life,"[1]; PO, 5 mg/kg",90 min
"(R)-2-(3-(5-Chloro-2-((tetrahydro-2H-pyran-4-yl)amino)pyrimidin-4-yl)-5-oxo-5,7-dihydro-6H-pyrrolo[3,4-b]pyridin-6-yl)-N—((S)-2-hydroxy-1-(m-tolyl)ethyl)propanamide [Comparative compound 3, reference compound]",IC50,Colo-205 cells; class symbols,> 1000 nM
